One data set concerns TNF-α. Briefly: TNF-α level in supernatant of LPS-stimulated RAW264.7 cells (ELISA). It counts as cell-based, mouse. The settings on record: 0.1-10 μM LS22 pretreatment 30 min, LPS 100 ng/mL 24 hours. The procedure:
(§1) Mouse RAW264.7 cells were inoculated on the 24-well cell culture plate (400 μl/well). RAW264.7 was pretreated with 0.1-10 μM of LS22 for 30 min, and then LPS (100 ng/mL) was added and co-incubated for 24 hours. Cell supernatant in each well was collected and TNF-α and IL-6 level was determined by ELISA kits.
(§2) The experiment date was shown as x±s. A SPSS 11.0 statistical package was used for statistic analysis and a one-way ANOVA was used to compare RAW264.7 cell viability results, TNF-α and IL-6 level between the groups, and P<0.05 represents statistical significance.
(§3) Derived Polypeptides were prepared as follows. Polypeptides were prepared according to the method in Example 1, and the inhibiting effect of the polypeptides on ocular inflammation was determined according to Examples 2-3.

Another data set has as its system RAW264.7 cells. Briefly: Cell viability assay (MTS). Type of data set: cell-based, mouse. The settings on record: RAW264.7 cells co-incubated 24 hours. How it is done:
RAW264.7 cells were placed into a 96-well plate for 24-hour adherent culture, and then peptides with different concentrations were added into each well and co-cultured for another 24 hours, while no treatment was taken to the control group. 20 μl of MTS solution was added into each well after 24 hours and cultured for another 3 hours. The culture plate was taken to determine the absorbance of each well at 490 nm.
as §2

The next data set deals with uveitis in rats. Briefly: LPS-induced uveitis in rats, intravitreal injection of polypeptide. It counts as in vivo, rat. As to conditions: for protein concentration in rat aqueous humor / exuded cells count in rat anterior chamber / aqueous humor: 24 hours after LPS injection, vs LPS+PBS group; for protein concentration in rat aqueous humor: BCA method, LS22 intravitreally; for exuded cells count in rat anterior chamber / aqueous humor: LS22 10, 50 or 100 μg intravitreally. The procedure: 8-week old male wistar rats were randomly divided into 5 groups with 10 rats for each, which are blank+PBS, LPS+PBS group, LPS+LS22 10 μg group, LPS+LS22 50 μg group, LPS+LS 22 100 μg group. 0.15 ml of pentobarbital (5.47 g/100 ml normal saline) was intraperitoneally injected into the rats for anesthesia. 100 μl of LPS (2 μg/μl) was subcutaneously injected into the right hindpaw of rats both in treating group and positive control group. An equal volume of normal saline was injected into the same position of the rats in blank+PBS group. 5% tropicamide and 1% tetracaine was dropped on the eye for mydriasis and local anesthesia. Under operating microscope, 10 μl of polypeptide or PBS of equal volume was intravitreally injected of bilateral eyes. The pars plana was vertically punctured by a 29-gauge microsyringe at 1 mm from corneal limbus and the vitreous cavity was reached. The drug liquid was then injected into the center of the vitreous cavity under direct vision and the needle was pulled out quickly after remaining for a few seconds. All above steps were conducted aseptically.
24 hours after LPS was injected, 6 rats in each experimental group were subjected to anterior chamber puncture by 30 G needle under deep anesthesia, and then bilateral aqueous humor was collected. Other 4 rats were sacrificed by cervical dislocation and the eyeballs were taken and immobilized.
The aqueous humor sample was diluted to 1:5 by trypan blue and then added into hemocytometer for manual counting under optical microscope, and total protein concentration was determined by BCA method.
The eyeballs were taken and immobilized by neutral formaldehyde (10%) and stored at 4° C. The sample was embedded into paraffin, cut into sagittal slices with the thickness of 5 μm, and then subjected to HE staining. The iris and ciliary body, anterior chamber, vitreous body and retina of the eyeballs were observed under optical microscope. The exuded cells in anterior chamber and vitreous cavity were counted by the same pathologist.
The experiment date was shown as x±s. A one-way ANOVA was used to compare the exuded cells and total protein concentration between these groups, and P<0.05 represents statistical significance.

A short description of data set [1]: Water solubility of the synthesized powder. Type of data set: physicochemical. The settings on record: white powder. How it is done:
7. 120 mg of polypeptide LS22 was obtained as white powder with good water solubility (purification >95%) and then sealed and stored for use at −20° C.

The subject of a further data set is IL-6. Briefly: IL-6 level in supernatant of LPS-stimulated RAW264.7 cells (ELISA). It counts as cell-based, mouse. The settings on record: 0.1-10 μM LS22 pretreatment 30 min, LPS 100 ng/mL 24 hours. The procedure: as §1, §2, §3
For another data set, the system named is ocular inflammation. Briefly: Inhibiting effect of derived polypeptides on ocular inflammation according to Examples 2-3. The procedure:
as §3

“Also recorded” adds a separate entry of the source. Peptide text beside a SMILES is read from it.

This is an account of results in patent US11369657B2, “Small molecule polypeptide for preventing and restraining inflammation and application of same” (SHANGHAI FIRST PEOPLE'S HOSPITAL, priority 2011, dated 2022).

Regarding `CC[C@H](C)[C@H](NC(=O)[C@H](CO)NC(=O)[C@H](CC(N)=O)NC(=O)[C@H](Cc1c[nH]cn1)NC(=O)[C@H](CO)NC(=O)[C@H](CC(C)C)NC(=O)[C@H](CC(=O)O)NC(=O)[C@@H](N)CC(C)C)C(=O)N[C@@H](CO)C(=O)N[C@@H](CCC(N)=O)C(=O)N[C@@H](CCC(=O)O)C(=O)N[C@@H](CO)C(=O)N[C@@H](C)C(=O)N[C@@H](CC(C)C)C(=O)N[C@@H](Cc1ccc(O)cc1)C(=O)N[C@@H](CC(C)C)C(=O)N[C@@H](CC(C)C)C(=O)N[C@@H](CCC(=O)O)C(=O)N[C@H](C(=O)N[C@@H](CC(C)C)C(=O)N1CCC[C@H]1C(=O)N[C@@H](CO)C(=O)O)[C@@H](C)O` [LS22] (H-LDLSHNSISQESALYLLETLPS-OH; N-terminus assumed), in the data set on TNF-α, the “LPS-induced TNF-α level in cell supernatant” value is recorded as “significantly inhibited; also recorded: remarkably inhibited”. Moreover, the “toxicity to the cells” value with RAW264.7 cells is “no toxicity was observed”. Further, the “cell viability compared with the control group” value with RAW264.7 cells (MTS) was “no statistically significant difference”. In addition, the “protein concentration in rat aqueous humor” value in the data set with uveitis in rats is listed as “remarkably decreased”; in the data set with uveitis in rats (listed as LSS), “significantly reduced”. The entries for the “exuded cells count in rat anterior chamber / aqueous humor” value in the data set on uveitis in rats and with uveitis in rats (listed as LSS) were “remarkably reduced” and “significantly reduced”, respectively. Further, the “inflammatory cells in tissues (histopathologic examination)” value in the data set on uveitis in rats (HE staining, anterior chamber, ciliary body, posterior vitreous cavity, after LPS injection) was “greatly reduced; also recorded: significantly reduced”. Further, in the data set with uveitis in rats (rats, LPS-induced), the inhibition of uveitis result is on record as “significantly inhibited uveitis”. Besides, the water solubility result in data set [1] is given as “good”. Moreover, the “LPS-induced IL-6 level in cell supernatant” value in the data set with IL-6 is recorded as “significantly inhibited; also recorded: remarkably inhibited”.
With “Polypeptide 7: sequence as set forth by SEQ ID NO.: 5 (ALQSLNLSENGLSLDAVLGLV)”, the anti-inflammation effect result in the data set with ocular inflammation (derived polypeptides, 10 μg group or 10 μM) is “exhibits an anti-inflammation effect to some extent”. Further, the “anti-inflammation effect compared with LS22” value in the data set on ocular inflammation (weaker than LS22) is on record as “about 30%”.
